Measured values published in ChEMBL document CHEMBL1201862, “PubChem BioAssay data set” (2004).
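How tested: cells in 96-well plates exposed to compound for 48 hours at five concentrations. GI50 marks 50% less growth.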 The source made the active and inactive calls. Rule as the data show it: active = GI50 up to about 1.1 µM and inactive = higher.

Legend:
Test in all cases: NCI-60 cell line screen, 48 h
[1] = system: K562
[2] = system: HT-29
[3] = system: SNB-19
[4] = system: A549
[5] = system: RXF 393
[6] = system: OVCAR-4
[7] = system: IGROV-1
[8] = system: UACC-257
[9] = system: KM12
[10] = system: HOP-62
[11] = system: HOP-92
[12] = system: UACC-62
[13] = system: COLO 205
[14] = system: SNB-75
[15] = system: MOLT-4
[16] = system: OVCAR-3
[17] = system: RPMI-8226
[18] = system: 786-0

Measured: GI50

Nc1nc(SCCC/C=C/I)nc2c1ncn2C1OC(COP(=O)(O)O)C(O)C1O (stereo not given)
inactive: [1] > 100 µM | [2] > 100 µM | [3] > 100 µM | [4] > 100 µM | [5] > 100 µM | [6] > 100 µM | [7] > 100 µM | [8] > 100 µM | [9] > 100 µM | [10] > 100 µM | [11] > 100 µM | [12] > 100 µM | [13] > 100 µM | [14] > 100 µM | [15] > 100 µM | [16] > 100 µM

CCCCCOc1ccc(/C=N\c2ccc(CCc3ccc(/N=C/c4ccc(OCCCCC)cc4)cc3)cc2)cc1
inactive: [1] > 100 µM | [2] > 100 µM | [3] > 100 µM | [4] > 100 µM | [5] > 100 µM | [6] > 100 µM | [7] > 100 µM | [8] > 100 µM | [17] > 100 µM | [9] > 100 µM | [10] > 100 µM | [11] > 100 µM | [12] > 100 µM | [13] > 100 µM | [14] > 100 µM | [15] > 100 µM | [16] > 100 µM

Cn1c(=O)c2nc(NCCO)cnc2n(C)c1=O
inactive: [1] 44.2 µM | [2] > 100 µM | [3] > 100 µM | [4] > 100 µM | [5] 35.6 µM | [6] 62.7 µM | [7] > 100 µM | [8] > 100 µM | [17] 66.4 µM | [9] 27.2 µM | [10] 71.1 µM | [11] > 100 µM | [12] 37.8 µM | [13] > 100 µM | [14] 8.73 µM | [15] > 100 µM | [16] 23.3 µM

Cn1ccnc1C(c1nccn1C)C(C)(C)[N+](=O)[O-]
inactive: [1] > 100 µM | [4] > 100 µM | [5] > 100 µM | [6] > 100 µM | [8] > 100 µM | [17] > 100 µM | [9] > 100 µM | [10] > 100 µM | [11] > 100 µM | [12] 12.4 µM | [18] > 100 µM | [13] > 100 µM | [14] > 100 µM | [15] > 100 µM | [16] > 100 µM

C[s+]1c2ccccc2c2ccccc21
inactive: [1] > 100 µM | [2] > 100 µM | [3] 74.1 µM | [4] > 100 µM | [5] > 100 µM | [6] > 100 µM | [7] > 100 µM | [17] > 100 µM | [9] > 100 µM | [10] > 100 µM | [12] > 100 µM | [18] > 100 µM | [13] > 100 µM | [15] > 100 µM | [16] > 100 µM

O=C1OCC/C1=N/O
inactive: [1] > 100 µM | [2] > 100 µM | [4] > 100 µM | [5] > 100 µM | [6] > 100 µM | [7] > 100 µM | [8] > 100 µM | [17] > 100 µM | [9] > 100 µM | [11] > 100 µM | [12] > 100 µM | [18] > 100 µM | [13] > 100 µM | [14] > 100 µM | [15] > 100 µM | [16] > 100 µM

O=C1c2ccccc2C(=O)N1CC#CCO
inactive: [1] > 100 µM | [2] > 100 µM | [3] > 100 µM | [4] > 100 µM | [5] > 100 µM | [6] > 100 µM | [8] > 100 µM | [9] > 100 µM | [10] > 100 µM | [12] > 100 µM | [18] > 100 µM | [15] > 100 µM | [16] > 100 µM

CCOC(=O)/C(=C\c1ccc(N(CCC#N)CCC#N)cc1C)NC(=O)/C=C/c1ccccc1
inactive: [1] > 100 µM | [2] > 100 µM | [3] > 100 µM | [4] > 100 µM | [5] > 100 µM | [7] > 100 µM | [8] > 100 µM | [17] > 100 µM | [9] > 100 µM | [10] > 100 µM | [12] > 100 µM | [18] > 100 µM | [13] > 100 µM | [14] > 100 µM | [15] > 100 µM | [16] > 100 µM

CC(C)(C)/N=C\N(C=C(c1ccccc1)c1ccccc1)C1CCCCC1
inactive: [1] 17.7 µM | [2] 25.9 µM | [3] > 100 µM | [4] 81.3 µM | [5] 19.4 µM | [6] 39.4 µM | [7] 50.9 µM | [8] 33.3 µM | [9] 36.2 µM | [10] > 100 µM | [11] 17.9 µM | [12] 44.1 µM | [18] 82.4 µM | [13] 22.7 µM | [14] 33.7 µM | [16] 29.8 µM

Cn1ncc2c(Nc3ccc(Cl)cc3)c3ccccc3nc21
inactive: [1] 16.2 µM | [2] 13.5 µM | [3] 18 µM | [4] 15.3 µM | [6] 12.4 µM | [7] 21.2 µM | [8] 17.3 µM | [17] 20.1 µM | [9] 18.7 µM | [10] 16.4 µM | [11] 17.6 µM | [12] 15.1 µM | [18] 14.1 µM | [13] 19.7 µM | [14] 10.8 µM | [15] 11.4 µM | [16] 18.7 µM

CCOC(=O)COc1ccc(OC)c2c1C(=O)CCC2
inactive: [1] > 100 µM | [2] > 100 µM | [3] 20 µM | [4] > 100 µM | [5] > 100 µM | [6] > 100 µM | [7] > 100 µM | [8] > 100 µM | [17] > 100 µM | [12] > 100 µM | [13] > 100 µM | [14] > 100 µM | [15] > 100 µM | [16] > 100 µM

CCN(CC)CCC(=O)NC1c2ccccc2Oc2c(C)cccc21 (stereo not given)
inactive: [1] > 100 µM | [2] > 100 µM | [3] > 100 µM | [4] > 100 µM | [5] > 100 µM | [6] > 100 µM | [7] > 100 µM | [8] > 100 µM | [17] > 100 µM | [10] > 100 µM | [12] > 100 µM | [18] > 100 µM | [13] > 100 µM | [14] > 100 µM | [15] > 100 µM

COc1ccc2c(c1)[n+]([O-])c(C(=O)C/C(=N/NC(=O)c1ccccc1O)C(=O)Nc1ccc(Cl)c(C(F)(F)F)c1)c(C)[n+]2[O-]
inactive: [1] 64.4 µM | [2] > 100 µM | [3] > 100 µM | [4] > 100 µM | [5] > 100 µM | [6] 87.9 µM | [7] 44 µM | [8] 91.6 µM | [9] 89.1 µM | [10] 37.8 µM | [11] > 100 µM | [12] > 100 µM | [18] 54.5 µM | [13] 71 µM | [14] 66.5 µM | [15] 37.3 µM | [16] 28.9 µM

CCOC(=O)CC(NC(=O)c1nc[nH]c1/N=N/N(C)C)C(=O)OCC (stereo not given)
inactive: [1] > 100 µM | [2] > 100 µM | [3] > 100 µM | [4] > 100 µM | [6] > 100 µM | [7] > 100 µM | [8] > 100 µM | [17] > 100 µM | [9] > 100 µM | [10] > 100 µM | [12] > 100 µM | [18] > 100 µM | [13] > 100 µM | [14] > 100 µM | [15] > 100 µM | [16] > 100 µM

Cc1ccc(-c2nnc(SCC(=O)O)[nH]2)cc1
inactive: [1] > 100 µM | [2] > 100 µM | [3] > 100 µM | [4] > 100 µM | [6] > 100 µM | [7] > 100 µM | [8] > 100 µM | [17] > 100 µM | [9] > 100 µM | [10] > 100 µM | [11] > 100 µM | [12] > 100 µM | [18] > 100 µM | [13] > 100 µM | [14] 78.5 µM | [15] > 100 µM | [16] > 100 µM

CC[C@H](C)N(CCN)C(=O)c1cc2ccccc2c(-c2ccccc2Cl)n1
inactive: [1] 3.05 µM | [2] 7.74 µM | [3] 16.1 µM | [4] 4.41 µM | [5] 6.55 µM | [6] 14.6 µM | [7] 8.09 µM | [8] 1.91 µM | [17] 13.2 µM | [9] 14.9 µM | [10] 17.5 µM | [12] 10.8 µM | [18] 4.49 µM | [13] 4.54 µM | [15] 7.31 µM | [16] 16.6 µM

Cn1cnc([N+](=O)[O-])c1Sc1nc2ccccc2[nH]1
inactive: [1] 20.3 µM | [2] 27.7 µM | [3] > 10 µM | [4] 19.4 µM | [5] 11.4 µM | [6] 33 µM | [7] 13.9 µM | [8] 15.1 µM | [17] 15.5 µM | [9] 19.5 µM | [10] > 100 µM | [11] 18.5 µM | [18] 41.1 µM | [13] 10.4 µM | [14] 18.4 µM | [15] 6.87 µM | [16] 31.9 µM
